Common to all, as to assay: inhibition of tumour cell growth, NCI panel, 48 h
Test [1] relates to SN12C renal.
The subject of test [2] is SK-MEL-5 melanoma.
The test system of test [3] is MOLT-4 leukemia.
Test [4] deals with RPMI-8226 leukemia.
Test [5] has as its system OVCAR-8 ovarian.
For test [6], the system named is UACC-257 melanoma.
Test [7] deals with NCI-H23 lung.
The test system of test [8] is LOX IMVI melanoma.
Test [9] relates to OVCAR-5 ovarian.
The test system of test [10] is HOP-62 NSCLC.

Where “and” joins values, the source holds several entries; their conditions need not be identical. Identical values can stand only once.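 Where inhibition never reached the appropriate level, the endpoint shown equals the highest concentration tested. Otherwise, values were interpolated linearly from a five-concentration, 48-hour dose response in 96-well plates. Here, GI50 denotes the concentration required for 50% inhibition of growth. TGI is the concentration that stops growth completely.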 Some results are limits rather than exact numbers.

As for `C=CCOCCCC(=O)C(=[N+]=[N-])C(=O)OC`, the TGI in test [1], in test [2], in test [3], in test [4], in [5] and in [6] was above 100 µM throughout. Moreover, the TGI in [7], in test [8] and in test [9] was above 100 µM in each case.

For the molecule `OC(c1ccc(-c2ccccc2)cc1)(c1ccc(-c2ccccc2)cc1)c1ccc(-c2ccccc2)cc1`, the TGI in test [1], in test [2], in test [3], in test [4], in [5] and in [6] was above 100 µM in each case. Further, the TGI in [7], in test [8], in test [10] and in test [9] was above 100 µM in each case.

Turning to `CCCCC1Cc2cc(OC)ccc2-c2nc3cc(OC)ccc3n21` (stereo unspecified) (tested in a mixture with another compound), the TGI in test [1] worked out at 27.9 µM; in test [2], 27.4 µM; in test [3], 37 µM; in [4] it was 24.4 µM; in [5], 31.6 µM; in test [6], 29.9 µM. The TGI in [7] turned out to be 27.8 µM; in [8], 30 µM; in test [10] it was 29.2 µM; in test [9], 31.4 µM.

As for `N=C(N)C(N=Nc1ccccc1)C(=N)N` (stereo unspecified), the TGI in test [1] was above 100 µM; in test [2] it was above 100 µM; in test [3], 99.3 µM; in test [4] it was above 100 µM; in test [5] it was above 100 µM; in [6] it was above 100 µM. Moreover, the TGI in test [7], in [8], in test [10] and in [9] was above 100 µM each time.

Regarding `O=C(O)C(Cc1ccccc1)N1C(=O)c2ccccc2C1=O` (stereo unspecified), the TGI in [1], in test [2], in test [3], in test [4], in [5] and in test [6] was above 100 µM each time. Further, the TGI in test [7], in [8], in [10] and in [9] was above 100 µM each time.

As for `Cc1cc(C)n(C(=O)C(C)Sc2nnc(SC(C)C(=O)n3nc(C)cc3C)s2)n1` (stereo unspecified), the TGI in test [2], in test [3], in test [4], in test [5], in test [6] and in test [7] was above 100 µM each time. Further, the TGI in test [8], in test [10] and in test [9] was above 100 µM throughout.

Consider `C=C1C(C2(C)C=CC(=O)OC3(C)COC(=O)CC32)C(OC=O)C(OC(=O)C(O)C(C)CC)C2(C)C(c3ccoc3)CC(OC(C)=O)C12O` (stereo unspecified), for which the TGI in test [1], in [2], in test [3], in test [4], in test [5] and in [6] was above 100 µM in each case. Further, the TGI in test [7] was above 100 µM; in test [8] it was 88.2 µM; in test [10], above 100 µM; in test [9], above 100 µM.

On to `O=C1c2scnc2-c2nccc3c2c1nc1ccccc13`, for which the TGI in test [1] is 4.23 µM; in [3], above 100 µM; in [4], above 100 µM; in [5], 1.21 µM; in test [6], 1.69 µM; in [7] it was 1.2 µM. Besides, the results for the TGI in test [8], in test [10] and in test [9] were 0.508 µM, 8.18 µM and above 24.8 µM, respectively.

`CO[C@@]12C[C@@H](CNC(=O)c3cc(Br)c[nH]3)O[C@@H]1NC(=O)N2`: the TGI in test [1], in test [2], in [4], in test [5], in [6] and in test [7] was above 100 µM each time. Moreover, the TGI in test [8], in test [10] and in test [9] was above 100 µM throughout.

Take `OC1C=C2C3CN(Cc4cc5c(cc43)OCO5)[C@H]2C[C@@H]1O` (stereo partly specified): the TGI in test [1] was above 100 µM; in test [2] it was 16.4 µM; in test [3], above 100 µM; in [4] it was above 100 µM; in [5], 91.2 µM; in [6], 9.29 µM. The TGI in [7] is 67.4 µM; in [8], above 100 µM; in [10], above 100 µM; in [9], 73.3 µM.

For `O=c1c2c([nH]c3nccn13)CCCC2`, the TGI in test [1], in test [2], in test [3], in test [4], in test [5] and in [7] was above 10 µM in each case. The TGI in [8], in [10] and in test [9] was above 10 µM throughout.

As to `O=C1c2ccccc2-c2ccc(O)cc21`, the TGI in test [1] was 36.9 µM; in test [2], 45.4 µM; in test [3], 44.4 µM; in test [4], above 100 µM; in test [5] it was 42.2 µM; in test [6], 49.1 µM. The TGI in test [7] is 38.5 µM; in test [8], 97.5 µM; in test [10], above 100 µM; in test [9], 68.5 µM.

With `S=C(NCCCCCCNC(=S)Nc1c2ccccc2nc2ccccc12)Nc1c2ccccc2nc2ccccc12`, the TGI is above 100 µM in [1]; above 100 µM in test [2]; above 94.3 µM in [3]; above 100 µM in test [4]; above 100 µM in test [5]; above 100 µM in test [6]. The TGI in test [7], in test [8], in test [10] and in [9] was above 100 µM throughout.

As to `COc1ccc(OC)c2sc(N3C(=O)/C(=C/c4ccccc4S)N=C3c3ccccc3)nc12`, the TGI in test [1] was 81.9 µM; in [2], 40.6 µM; in test [3], 35 µM; in test [4] it was 58.4 µM; in test [5], above 100 µM; in test [6], above 100 µM. Further, the TGI in test [8] was 60.4 µM; in [10], above 100 µM; in test [9] it was above 100 µM.

In the case of `CCC(C)C(NC(=O)C(CCCCN)NC(=O)C(NC(=O)C(CCC(N)=O)NC(=O)C(CCCNC(=N)N)NC(C)=O)C(C)CC)C(=O)NC(Cc1c[nH]c2ccccc12)C(=O)NC(Cc1ccccc1)C(=O)NC(CCC(N)=O)C(=O)NC(CC(N)=O)C(=O)NC(CCCNC(=N)N)C(=O)NC(CCCNC(=N)N)C(=O)NC(CCSC)C(=O)NC(CCCCN)C(=O)NC(Cc1c[nH]c2ccccc12)C(=O)NC(CCCCN)C(=O)NC(CCCCN)C(N)=O` (stereo unspecified), the TGI in test [1], in test [2], in [3], in test [4], in test [5] and in test [6] was above 50 µM in each case. The TGI is above 50 µM in test [7], above 50 µM in test [8], above 50 µM in test [10] and 22.5 µM in [9].

For the molecule `COC1(OC)C[C@H](C)[C@@]23O[C@]24c2cc(O)c5c(c2N[C@H]3C#C/C=C\C#C[C@]14O)C(=O)c1ccccc1C5=O`, the TGI in [1] was 0.00979 µM; in test [2], 0.0222 µM and 0.00891 µM; in [3], below 0.001 µM; in [4], 0.0604 µM and 0.0392 µM; in test [5], 0.048 µM and 0.0756 µM; in test [6], 0.0789 µM and 0.0505 µM. Besides, the TGI in [7] was 0.0229 µM; in [8] it was 0.049 µM; in test [10], 0.00216 µM and 0.0173 µM; in [9] it was 0.169 µM and 0.111 µM. Also, the GI50 was 1.72 nM in test [2]; below 1 nM in test [3]; 1.5 nM in [4]; 4.3 nM in [5]; 6.24 nM in test [6]; below 1 nM in [10]. Further, the GI50 in test [9] was 20.6 nM.

`CN(C)CCNc1c([N+](=O)[O-])cc2c3c(cccc13)C(=O)N(CCN(C)C)C2=O`: the TGI in [1] was found to be 9.28 µM; in test [2], 4.32 µM; in test [3] it was 3.09 µM; in [4], 11.6 µM; in test [5] it was 3.27 µM; in test [6] it was 4.71 µM. For the same molecule, the TGI in test [7] turned out to be 3.89 µM; in [8], 4.01 µM; in [10], 8.49 µM; in test [9], 4.96 µM.

On to `Cc1c2c(cc3c1[nH]c1ccccc13)C(c1ccc(F)cc1)=NCC2`, for which the TGI came out at 6.4 µM in test [1]; 4.83 µM in test [2]; 5.34 µM in [3]; 2.54 µM in test [4]; 6.68 µM in test [5]; 2.46 µM in test [6]. Also, the TGI in [7] was found to be 7.56 µM; in test [8] it was 3.02 µM; in test [10], 6.54 µM; in test [9], 9.62 µM.

Take `CC(=O)C1=C(O)C2(O)C(=O)c3c(c(C)c4ccc(C)c(O)c4c3O)CC2C(N)C1=O` (stereo unspecified): the TGI in test [1] was found to be 9.79 µM; in [2], 3.85 µM; in test [3], 8.86 µM; in test [4], 12.8 µM; in test [5], 10.7 µM; in test [6], 11.9 µM. In addition, the TGI is 7.14 µM in test [7], 11.4 µM in test [8], 10.7 µM in test [10] and 14 µM in [9].

For `N#CCc1[nH]nc2nc(SCc3ccccc3)nc(N3CCCCC3)c12`, the TGI in test [1] is 28.7 µM; in [2] it was 32.8 µM; in [3], 37.9 µM; in [4], 43.2 µM; in test [5], above 100 µM; in [6], 35.7 µM. Moreover, the TGI worked out at 33.1 µM in [7], 43 µM in test [8], 35.5 µM in test [10] and 36 µM in test [9].

The record behind these values is PubChem BioAssay (NCI).
